Data on two substances can be found in US6544964B1, “Method for fixing or separating ions, in particular of lead, using per(3,6-anhydro)cy-clodextrin derivatives” (priority 1997, dated 2003).

Test [1] in a line: Affinity constant for Pb from the NMR results of examples 2 to 4. In kind it is binding. The conditions noted are these: aqueous solution (D2O), 298 K. The method, then:
(§1) To an aqueous solution of the permethyl derivative obtained in example 1 is added an aqueous lead nitrate solution in order to obtain an aqueous solution containing 3 mmole/l of permethyl derivative and 1 mmole/l of lead nitrate. The solution obtained is analyzed by nuclear magnetic resonance under the same conditions as in example 1 (500 MHz, D2O, 298 K).
(§2) The same operating procedure as in example 2 is followed, but the aqueous solution incorporates 3 mmole/l of the permethyl derivative of example 1 and 3 mmole/l of lead nitrate.
(§3) The same operating procedure as in example 3 is followed, but addition also takes place of sodium nitrate so as to obtain an aqueous solution incorporating 3 mmole/l of the permethyl derivative of example 1, 3 mmole/l of lead nitrate and 3 mmole/l of sodium nitrate.

A short description of test [2]: Formation of the lead complex in aqueous solution, followed by proton NMR. The format is binding. The method, then: as §1
In this case, the exchange is sufficiently slow compared with the NMR observation time, to observe the two signals corresponding to the free cyclodextrin (FIG. 1(a)) and to the complex (FIG. 1(b)).
as §2, §3

Take “Hexakis (3,6-Anhydro-2-0-methyl)cyclomaltohexaose [Example 1]”: the “affinity constant for Pb” value in test [1] is listed as “approximately 10^5”. For the same substance, the “NMR spectrum of the lead complex in presence of sodium ions” value in test [2] (3 mmole/l derivative, 3 mmole/l lead nitrate, 3 mmole/l sodium nitrate) is “not modified”. In test [2] (3 mmole/l permethyl derivative, 1 mmole/l lead nitrate, D2O, 298 K, 500 MHz, free:complexed 2 for 1), the “lead complexation (respective surfaces of free and complexed parts)” value is listed as “all the lead present is complexed”. In addition, the “lead complexation (NMR signals)” value in test [2] (3 mmole/l permethyl derivative, 3 mmole/l lead nitrate, D2O, 298 K) is on record as “only the signals of the complex are visible”.

For the substance “hexakis (3,6-anhydro)cyclomaltohexaose [reference compound]”, in test [1], the “affinity constant for Pb” value is on record as “approximately 2500”.
